Assay results: patent US20260076937A1, “COMPOSITION FOR PREVENTING OR TREATING AUTOIMMUNE DISEASES COMPRISING A BCAT1 INHIBITOR” (Seoul National University R&DB Foundation, priority 2024, published 2026)
Entries after “also recorded” stand apart in the source; their conditions may differ.

Columns and labels:
HIF-1α [1] = test: RT-qPCR of HIF-1α and HIF-1α target genes in CD4+ memory T cells; type: cell-based, human
Description: Total RNA was prepared using TRIzol reagent (Life Technologies, Grand Island, NY), followed by cDNA synthesis (Promega, Madison, WI), followed by real-time quantitative RT-PCR with a CFX system (Bio-Rad, Hercules, CA) using SensiFAST SYBR® Lo-ROX (Bioline, London. UK). Gene expression levels were normalized for […] expression using the comparative CT method (ΔΔCT).

mTORC1 = test: Phospho-p70-S6K immunoblot (mTORC1 activity) in CD4+ memory T cells; type: cell-based, human; settings: about 1-2 hours after stimulation
Description: (§1) Cells were cultured in radioimmunoprecipitation assay (RIPA) buffer (150 mM NaCl, 10 mM Na2HPO4, pH 7.2, 1% Nonidet P-40, 0.5% deoxycholate) containing phenylmethylsulfonyl fluoride (PMSF; Millipore Sigma, Burlington, MA), EDTA, protease and phosphatase inhibitor cocktail (Thermo Fisher Scientific) to extract total protein. Proteins were separated on 8-10% SDS-polyacrylamide gels and blotted onto polyvinylidene difluoride (PVDF) membranes (Bio-Rad, Hercules, CA) followed by 5% BSA in Tris buffered saline (TBS) with 0.1% Tween 20 and blocked for 1 hour. Membranes were cultured overnight with anti-human SLC7A5, anti-BCAT, anti-phospho-p70S6K, anti-p70S6K, anti-HIF-1α (all provided by Cell Signaling Technology, Danvers, MA) primary antibodies at 4° C., followed by culture with HRP-conjugated secondary antibodies for 1 hour at room temperature. Membranes were developed using SuperSignal West Femto Maximum Sensitivity Substrate or SuperSignal West Pico PLUS Chemiluminescent Substrate system (Thermo Fisher Scientific).

[2] = test system: human CD4+ memory T cells; test: scRNA-seq analysis of CD4+ memory T cells; type: cell-based; settings: Bi2 10 μM
Description: Freshly purified CD4^+ memory T-cells were stimulated for 72 hours with anti-CD3/CD28 coated microbeads in the absence or presence of Bi2. Samples from four different donors were multiplexed for 30 minutes at 4° C. with a hashtag oligo. Totalseq™ anti-human hashtag antibody (Biolegend, USA) was then used to perform in three experimental conditions (TCR-stimulated cells with Bi2, TCR-stimulated cells without Bi2, and cells without TCR stimulation). Tagged cells were pooled and loaded into a Chromium system (10× Genomics, Pleasanton, CA) and encapsulated into a single droplet targeting about 40,000 cells for each GEM (Gel Beads-in-emulsion). Chromium Single Cell 5′ Kit (10× Genomics) was used to generate scRNA-seq and TCR libraries according to the manufacturer's instructions. Demultiplexing and read alignment to the bound human genome was performed using Cell Ranger (v6.1.2).

human CD4+ naive T cells = test: Cell viability by 7-AAD staining; type: cell-based; settings: Bi2 10 μM, 4 days
Description: (§2) To analyze T cell proliferative capacity, purified isolated human CD4+ T cells were labeled with 1 μM carboxyfluorescein succinimidyl ester (CFSE; Invitrogen, Waltham, MA, USA) and then stimulated with anti-CD3/CD28 antibody coated microbeads for 4 days at 37° C. Cells were stained with 7AAD (BD Biosciences) for 10 minutes to distinguish dead cells and the extent of CFSE dilution in 7AAD-cells was measured by BD LSRFortessa to analyze proliferative capacity. Antibodies listed in Table 2 and previously known BD LSRFortessa cell analyzers were used.

[3] = test system: human CD4+ naive and memory T cells; test: CFSE dilution proliferation assay; type: cell-based; settings: anti-CD3/CD28 microbeads; Bi2 10 μM, JPH203 10 μM, LβhL 400 mg/L
Description: as §2

HIF-1α [4] = test: HIF-1α immunoblot in TCR-stimulated CD4+ memory T cells; type: cell-based, human; settings: TCR-stimulated CD4+ memory T cells; Bi2 10 μM, CoCl2 100 μM, VH298 100 μM, MG132 5 μM
Description: as §1

SKG mice = test: Curdlan-induced arthritis in SKG mice; type: in vivo, mouse
Description: Eight-week-old female SKG mice used for induction of autoimmune arthritis [e.g., Rheumatoid Arthritis (RA)] were purchased from CLEA Japan (Tokyo, Japan). All mice were bred and managed in a sterile facility at Seoul National University School of Medicine. All experiments were approved by Seoul National University Institutional Animal Experimentation Ethics Committee (IACUC) (approval number: SNU-230825-2-2). At 8 weeks of age, 3 mg/mice curdlan (Wako, Japan) in 300 μl sterile PBS was injected intraperitoneally (i.p.) into mice. Ankle thickness was measured using calipers (Manostat, New York, NY). […] 0 point: no joint swelling; 0.1 point: single finger joint swelling; 0.5 point: minor swelling of wrist, ankle or tail base; 1.0 point: severe swelling of […], […] or tail base. Scores for all joints of each mouse were summed. Mice were euthanized at the end of the experiment and immune cells were extracted from inguinal lymph nodes (inguinal LNs) and joint cells.

[5] = Bi2 i.p. twice a week for 3 weeks

For `O=C(NNS(=O)(=O)c1ccccc1C(F)(F)F)c1cc2cc(Cl)ccc2o1` [Bi2, BCATc inhibitor 2], the “HIF-1α mRNA expression” value (HIF-1α [1]; 4 hours after TCR stimulation) was “reduced”, the “expression of SCL2A1, LDHA and PGK1 mRNA (HIF-1α target genes)” value (HIF-1α [1]; 72 hours of TCR stimulation) was “reduced” and the S6K phosphorylation (mTORC1) was “inhibitory effect”. For the same compound, the “HIF1A expression in activated Th17 cells” value ([2]; 72 hours TCR stimulation) was “down-regulated”, the “activated Th17 cell population (clusters 8, 13, 15)” value ([2]; 72 hours TCR stimulation) was “decreased” and the “T-cell activation, cytokine signaling and cytokine production pathways in activated Th17 subset” value ([2]; pathway enrichment of DEGs) was “decrease”. The “viability of activated CD4+ naive T cells” value (human CD4+ naive T cells) was “no significant effect”, the “proliferation (CFSE dilution)” value [3] was “no effect on proliferation” and the HIF-1α protein expression (HIF-1α [4]) was “significantly inhibited”. For the same compound, the “ifng, tgfb1 expression in synovial cells” value (SKG mice; [5]) was “significantly reduced”, the “ratio of Th17 cells in CD3+CD4+ T cells in inguinal lymph nodes” value (SKG mice; [5]) was “significantly reduced” and the arthritis score (SKG mice; Bi2 i.p. twice a week for 3 weeks after curdlan) was “significantly lower; also recorded: alleviates”.
